Results reported in ChEMBL document CHEMBL1151454, “Failures in clinical treatment of Staphylococcus aureus Infection with daptomycin are associated with alterations in surface charge, membrane phospholipid asymmetry, and drug binding” (Antimicrob Agents Chemother, 2008).
In brackets after ≈: the same amount, converted by molar mass. Activity calls are given as the source filed them. No cut-off for these calls is given here. Non-standard residues stand in square brackets, D forms with d. Residues, ends and D or L forms follow the SMILES beside them. *: point of attachment. NHCH2CH2OH = OCCN*; For = O=C*

Assays:
Staphylococcus aureus [1] = assay: Antibacterial activity against daptomycin-nonsusceptible Staphylococcus aureus isolate 701 bloodstream form isolated from patient with endocarditis after 18 hrs by microdilution technique; type: functional; conditions: Staphylococcus aureus, 701, 18 h
Staphylococcus aureus [2] = assay: Drug binding to methicillin-susceptible Staphylococcus aureus isolate 616 bloodstream form isolated from patient with endocarditis at 32 ug after 10 mins by radial diffusion assay; type: ADME, organism-based
Staphylococcus aureus [3] = assay: Antibacterial activity against daptomycin-nonsusceptible Staphylococcus aureus isolate 703 bloodstream form isolated from patient with endocarditis after 18 hrs by microdilution technique; type: functional; conditions: Staphylococcus aureus, 703, 18 h
Staphylococcus aureus [4] = assay: Antibacterial activity against daptomycin-transitional Staphylococcus aureus isolate 629 bloodstream form isolated from patient with endocarditis after 18 hrs by microdilution technique; type: functional; conditions: Staphylococcus aureus, 629, 18 h
Staphylococcus aureus [5] = assay: Drug binding to daptomycin-nonsusceptible Staphylococcus aureus isolate 701 bloodstream form isolated from patient with endocarditis at 32 ug after 10 mins by radial diffusion assay; type: ADME, organism-based
Staphylococcus aureus [6] = assay: Drug binding to daptomycin-transitional Staphylococcus aureus isolate 629 bloodstream form isolated from patient with endocarditis at 32 ug after 10 mins by radial diffusion assay; type: ADME, organism-based
Staphylococcus aureus [7] = assay: Antibacterial activity against methicillin-susceptible Staphylococcus aureus isolate 616 bloodstream form isolated from patient with endocarditis after 18 hrs by microdilution technique; type: functional; conditions: Staphylococcus aureus, 616, 18 h
Staphylococcus aureus [8] = assay: Drug binding to daptomycin-nonsusceptible Staphylococcus aureus isolate 703 bloodstream form isolated from patient with endocarditis at 32 ug after 10 mins by radial diffusion assay; type: ADME, organism-based
Staphylococcus aureus [9] = assay: Induction of autolysis in daptomycin-nonsusceptible Staphylococcus aureus isolate 703 bloodstream form isolated from patient 50 ug/ml measured at 18 hrs; type: functional, organism-based
Staphylococcus aureus [10] = assay: Antibacterial activity against daptomycin-nonsusceptible Staphylococcus aureus isolate 701 bloodstream form isolated from patient with endocarditis assessed as inhibition on heterogeneous subpopulation survival rate at 0.25 and 1 ug/ml after 48 hrs; type: functional, organism-based
Staphylococcus aureus [11] = assay: Antibacterial activity against daptomycin-nonsusceptible Staphylococcus aureus isolate 703 bloodstream form isolated from patient with endocarditis assessed as inhibition on heterogeneous subpopulation survival rate at 0.25 and 1 ug/ml after 48 hrs; type: functional, organism-based
Staphylococcus aureus [12] = assay: Antibacterial activity against daptomycin-transitional Staphylococcus aureus isolate 629 bloodstream form isolated from patient with endocarditis assessed as inhibition on heterogeneous subpopulation survival rate at 0.25 and 1 ug/ml after 48 hrs; type: functional, organism-based
Staphylococcus aureus [13] = assay: Induction of autolysis in daptomycin-nonsusceptible Staphylococcus aureus isolate 701 bloodstream form isolated from patient 50 ug/ml within 24 hrs; type: functional, organism-based
Staphylococcus aureus [14] = assay: Induction of autolysis in daptomycin-transitional Staphylococcus aureus isolate 629 bloodstream form isolated from patient 50 ug/ml within 24 hrs; type: functional, organism-based
Staphylococcus aureus [15] = assay: Induction of autolysis in methicillin-susceptible Staphylococcus aureus isolate 616 bloodstream form isolated from patient 50 ug/ml within 24 hrs; type: functional, organism-based
Staphylococcus aureus [16] = assay: Induction of autolysis in daptomycin-nonsusceptible Staphylococcus aureus isolate 703 bloodstream form isolated from patient 50 ug/ml within 24 hrs; type: functional, organism-based
Staphylococcus aureus [17] = assay: Antibacterial activity against methicillin-susceptible Staphylococcus aureus isolate 616 bloodstream form isolated from patient with endocarditis assessed as inhibition on heterogeneous subpopulation survival rate at 0.25 and 1 ug/ml after 48 hrs; type: functional, organism-based

Row | SMILES | MIC (Staphylococcus aureus [1]) | Drug uptake (Staphylococcus aureus [2]) | MIC (Staphylococcus aureus [3]) | MIC (Staphylococcus aureus [4]) | Drug uptake (Staphylococcus aureus [5]) | Drug uptake (Staphylococcus aureus [6]) | MIC (Staphylococcus aureus [7]) | Drug uptake (Staphylococcus aureus [8]) | Activity (Staphylococcus aureus [9]) | Activity (Staphylococcus aureus [10]) | Activity (Staphylococcus aureus [11]) | Activity (Staphylococcus aureus [12]) | Activity (Staphylococcus aureus [13]) | Activity (Staphylococcus aureus [14]) | Activity (Staphylococcus aureus [15]) | Activity (Staphylococcus aureus [16]) | Activity (Staphylococcus aureus [17])
1 | CC(C)C[C@@H](NC(=O)[C@H](C)NC(=O)CNC(=O)[C@@H](NC=O)C(C)C)C(=O)N[C@@H](C)C(=O)N[C@@H](C(=O)N[C@H](C(=O)N[C@@H](C(=O)N[C@@H](Cc1c[nH]c2ccccc12)C(=O)N[C@H](CC(C)C)C(=O)N[C@@H](Cc1c[nH]c2ccccc12)C(=O)N[C@H](CC(C)C)C(=O)N[C@@H](Cc1c[nH]c2ccccc12)C(=O)N[C@H](CC(C)C)C(=O)N[C@@H](Cc1c[nH]c2ccccc12)C(=O)NCCO)C(C)C)C(C)C)C(C)C [GRAMICIDIN D] (For-VGA[dL]A[dV]V[dV]W[dL]W[dL]W[dL]W-NHCH2CH2OH) | 32 µg/mL (≈ 17 µM) | 12 µg/mL | 32 µg/mL (≈ 17 µM) | 32 µg/mL (≈ 17 µM) | 11 µg/mL | 10 µg/mL | 32 µg/mL (≈ 17 µM) | 9 µg/mL | – | – | – | – | – | – | – | – | –
2 | CN[C@H](CC(C)C)C(=O)N[C@H]1C(=O)N[C@@H](CC(N)=O)C(=O)N[C@H]2C(=O)N[C@H]3C(=O)N[C@H](C(=O)N[C@H](C(=O)O)c4cc(O)cc(O)c4-c4cc3ccc4O)[C@H](O)c3ccc(c(Cl)c3)Oc3cc2cc(c3O[C@@H]2O[C@H](CO)[C@@H](O)[C@H](O)[C@H]2O[C@H]2C[C@](C)(N)[C@H](O)[C@H](C)O2)Oc2ccc(cc2Cl)[C@H]1O | – | – | – | – | – | – | – | – | inactive | inactive | inactive | inactive | inactive | inactive | Active | inactive | inactive
